Blank lines part the entries; values can stand above or below the compound they belong to.
Tested on: NCI-H1417 complex spheroids, growth % test/control
Test: Anticancer human tumor NCI-H1417 cell line growth inhibition [Asc];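 also: spheroids exposed to compounds for 7 days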;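 as to viability, T/C: 100% = DMSO vehicle control wells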
Settings: for IC50: curve of first compound; for viability, T/C: stronger effect = lower value
Summary of the method: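 Tumor cells were grown as complex spheroids with human endothelial cells (HUVEC) and human mesenchymal stem cells as stroma. Agents were tested alone and in combination, in half-log steps down from the clinical Cmax, or from 10 microM where Cmax was unknown.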

[1] = second compound 0.1 µM, first compound 0.0316 µM
[2] = second compound 0.1 µM, first compound 0.1 µM
[3] = second compound 0.316 µM, first compound 0.0316 µM
[4] = second compound 0.316 µM, first compound 0.1 µM
[5] = second compound 1 µM, first compound 0.0316 µM
[6] = second compound 1 µM, first compound 0.1 µM
[7] = second compound 3.16 µM, first compound 0.0316 µM
[8] = second compound 3.16 µM, first compound 0.1 µM
[9] = second compound 10 µM, first compound 0.0316 µM
[10] = second compound 10 µM, first compound 0.1 µM

IC50 (second compound 0.1 µM): 3.84 nM
IC50 (second compound 0.316 µM): < 0.316 nM
IC50 (second compound 1 µM): < 0.316 nM
IC50 (second compound 3.16 µM): < 0.316 nM
IC50 (second compound 10 µM): < 0.316 nM
SMILES: Cn1ncnc1[C@H]1c2n[nH]c(=O)c3cc(F)cc(c23)N[C@@H]1c1ccc(F)cc1 + Cc1c(S(C)(=O)=O)c(-c2cc(F)cc(N3CCN(c4ccc(NS(=O)(=O)c5ccc(NC(CCN6CCC(C(=O)OCCCP(=O)(O)O)CC6)CSc6ccccc6)c(S(=O)(=O)C(F)(F)F)c5)cc4)CC3)c2)c(-c2ccc(Cl)cc2)n1C(C)C
viability, T/C (second compound 0.1 µM, first compound 0.000316 µM): 85.9%
viability, T/C (second compound 0.1 µM, first compound 0.001 µM): 83.2%
viability, T/C (second compound 0.1 µM, first compound 0.00316 µM): 54.8%
viability, T/C (second compound 0.1 µM, first compound 0.01 µM): 21.9%
viability, T/C [1]: 8.37%
viability, T/C [2]: 5.48%
viability, T/C (second compound 0.316 µM, first compound 0.000316 µM): 46.7%
viability, T/C (second compound 0.316 µM, first compound 0.001 µM): 42.7%
viability, T/C (second compound 0.316 µM, first compound 0.00316 µM): 31.7%
viability, T/C (second compound 0.316 µM, first compound 0.01 µM): 5.82%
viability, T/C [3]: 3.42%
viability, T/C [4]: 3.86%
viability, T/C (second compound 1 µM, first compound 0.000316 µM): 12.5%
viability, T/C (second compound 1 µM, first compound 0.001 µM): 10.4%
viability, T/C (second compound 1 µM, first compound 0.00316 µM): 6.37%
viability, T/C (second compound 1 µM, first compound 0.01 µM): 3.13%
viability, T/C [5]: 2.7%
viability, T/C [6]: 3.15%
viability, T/C (second compound 3.16 µM, first compound 0.000316 µM): 3.13%
viability, T/C (second compound 3.16 µM, first compound 0.001 µM): 2.74%
viability, T/C (second compound 3.16 µM, first compound 0.00316 µM): 2.64%
viability, T/C (second compound 3.16 µM, first compound 0.01 µM): 2.34%
viability, T/C [7]: 3.42%
viability, T/C [8]: 2.69%
viability, T/C (second compound 10 µM, first compound 0.000316 µM): 2.53%
viability, T/C (second compound 10 µM, first compound 0.001 µM): 2.63%
viability, T/C (second compound 10 µM, first compound 0.00316 µM): 2.54%
viability, T/C (second compound 10 µM, first compound 0.01 µM): 2.98%
viability, T/C [9]: 3.14%
viability, T/C [10]: 2.76%

IC50 (second compound 0.1 µM): 1110 nM
IC50 (second compound 0.316 µM): < 31.6 nM
IC50 (second compound 1 µM): < 31.6 nM
IC50 (second compound 3.16 µM): < 31.6 nM
IC50 (second compound 10 µM): < 31.6 nM
SMILES: O=C(c1cc(Cc2n[nH]c(=O)c3ccccc23)ccc1F)N1CCN(C(=O)C2CC2)CC1 + Cc1c(S(C)(=O)=O)c(-c2cc(F)cc(N3CCN(c4ccc(NS(=O)(=O)c5ccc(NC(CCN6CCC(C(=O)OCCCP(=O)(O)O)CC6)CSc6ccccc6)c(S(=O)(=O)C(F)(F)F)c5)cc4)CC3)c2)c(-c2ccc(Cl)cc2)n1C(C)C
viability, T/C [1]: 78.7%
viability, T/C [2]: 78.5%
viability, T/C (second compound 0.1 µM, first compound 0.316 µM): 69.3%
viability, T/C (second compound 0.1 µM, first compound 1 µM): 52.8%
viability, T/C (second compound 0.1 µM, first compound 3.16 µM): 25.5%
viability, T/C (second compound 0.1 µM, first compound 10 µM): 5.06%
viability, T/C [3]: 44.5%
viability, T/C [4]: 37%
viability, T/C (second compound 0.316 µM, first compound 0.316 µM): 35.1%
viability, T/C (second compound 0.316 µM, first compound 1 µM): 23.2%
viability, T/C (second compound 0.316 µM, first compound 3.16 µM): 7.41%
viability, T/C (second compound 0.316 µM, first compound 10 µM): 3.61%
viability, T/C [5]: 10.6%
viability, T/C [6]: 14.2%
viability, T/C (second compound 1 µM, first compound 0.316 µM): 8.49%
viability, T/C (second compound 1 µM, first compound 1 µM): 5.49%
viability, T/C (second compound 1 µM, first compound 3.16 µM): 2.71%
viability, T/C (second compound 1 µM, first compound 10 µM): 3.64%
viability, T/C [7]: 2.9%
viability, T/C [8]: 2.62%
viability, T/C (second compound 3.16 µM, first compound 0.316 µM): 2.54%
viability, T/C (second compound 3.16 µM, first compound 1 µM): 2.33%
viability, T/C (second compound 3.16 µM, first compound 3.16 µM): 2.43%
viability, T/C (second compound 3.16 µM, first compound 10 µM): 2.96%
viability, T/C [9]: 2.71%
viability, T/C [10]: 2.63%
viability, T/C (second compound 10 µM, first compound 0.316 µM): 2.54%
viability, T/C (second compound 10 µM, first compound 1 µM): 1.96%
viability, T/C (second compound 10 µM, first compound 3.16 µM): 2.66%
viability, T/C (second compound 10 µM, first compound 10 µM): 3.21%

From PubChem BioAssay AID1963440 (Molecular Pharmacology Branch, DTP, NCI, 2024)
